Source: patent US11674140B2, “Compositions and methods for treating facioscapulohumeral dystrophy” (THE CHILDREN'S MEDICAL CENTER CORPORATION, priority 2017, dated 2023)
Entries after “also recorded” stand apart in the source; their conditions may differ.

Experiments:
[1] = system: FSHD biomarkers MBDL3L3, TRIM42 and ZSCAN4; assay: Quantitative real-time PCR of FSHD biomarkers in patient myotubes; assay type: cell-based, human
Description: One common way to test potential therapies for FSHD is to measure a reduction in FSHD biomarker genes (FIG. 16B). […] Briefly, patient primary myoblasts (17A and 16A) were placed in differentiation media. At day four, drug compounds were added, and myotubes were harvested 24 hours later. RNA extraction and cDNA synthesis was performed. Quantitative real-time PCR for FSHD biomarkers levels of MBDL3L3, TRIM42 and ZSCAN4 was performed. Results indicated a significant reduction in biomarker levels for the majority of drugs tested.

DUX4 inducible cell line = assay: Cell death assay: caspase fluorescence (FITC) in DUX4 inducible cell line after doxycycline; assay type: cell-based; settings: after 48 hours of doxycycline treatment
Description: FIG. 17A includes a series of micrographs. Fluorescence from labeled caspase is visible (fluorescein isothiocynate (FITC)) in a DUX4 inducible cell line after 48 hours of doxy cy cline treatment.
Cell death assay were then used to validate single knock-outs cell lines (FIGS. 17A-17C).

DUX4 toxicity = assay: Caspase 3/7 activity assay (luciferase read-out) of DUX4-induced cell death; assay type: cell-based, human
Description: FIGS. 14A and 14B illustrate a method for assaying cell death. FIG. 14A is a schematic diagram showing a method for assaying cell death by measuring Caspase 3/7 activity using a luciferase read-out.
FIG. 14B presents graphical data generated from the doxycycline-inducible assay.
The DUX4 gene encodes a transcription factor whose expression is rare, but extremely toxic. DUX4 transcription factor controls more than 100 early developmental genes. Misexpression of DUX4 is hypothesized to induce inappropriate expression of downstream genes to cause disease pathogenesis. […] Non-manifesting carriers of FSHD alleles who are found to express DUX4, point to the existence of genetic modifiers that may act to suppress DUX4 toxicity. The clinical, histopathological and molecular evidence for asymptomatic/non-manifesting carriers of FSHD is provided at FIGS. 1A-1F. As reported herein below, a genome-wide CRISPR loss-of-function library was used to identify genes that modulate DUX4 induced toxicity and act as genetic modifiers of FSHD (FIG. 1M). This powerful resource has enabled the assessment of the impact of all loss-of-function gene edits across the entire genome. This approach permitted the isolation of genes that influence survivability of DUX4 toxicity. These genes were validated in vitro by generation of individual knock-out lines, using a Caspase-3/7 assay to quantify reduced DUX4-induced apoptosis, and using inhibitor compounds to mimic gene knock-outs. These genes are also being evaluated in vivo.
The abundance of sgRNAs in each of the LOF cell lines was measured (FIG. 12). Each sgRNA is specific to the gene. Single gene knock-outs were generated using a lenti-CRISPR plasmid. […] To determine whether the results observed with Hif1a knockout could be recapitulated using an inhibitor of Hif1a, experiments with small compound inhibitors were carried out (FIGS. 15A, 15B, 16C, 16D). […] Herbimycin A is a benzoquinone drug (used for anti-cancer treatment) that binds and inhibits heat shock protein 90 (HSP90) chaperone (tyrosine kinase inhibitor) and is known to deplete dephosphorylated HIF1a. […]

DUX4-injected zebrafish = DUX4-injected zebrafish model of FSHD; assay type: in vivo; settings: drug 24 hr post-injection; day 7; compared to DUX4-injected no drug control group
Description: FSHD has proven to be a difficult disease to model in animals given the primate-specific origins of DUX4, its sporadic activation and mosaic expression, as well as the complex epigenetic components associated with the disease. Our published DUX4 zebrafish model was the first to recapitulate the muscle-eye-ear combination of phenotypes described in human FSHD (FIGS. 1N-A, 1N-B, 1N-C). […] These established DUX4 models of FSHD provide for functional follow-up experiments for candidate genes identified in CRISPR screens.
Drugs that show efficacy in vitro can be tested in a zebrafish model of FSHD. […] After injecting DUX4 into zebrafish, the test subjects were then treated with the four drug compounds 24 hr post-injection. Injected fish were categorized into affected or unaffected groups based on whole-body phenotype (FIG. 18A).

Row | SMILES | FSHD biomarker levels (MBDL3L3, TRIM42, ZSCAN4) ([1]; patient primary myoblasts 16A and 17A, drug added at day four of differentiation, harvested 24 hours later) | caspase fluorescence (DUX4 inducible cell line) | efficacy in patient cell lines [1] | efficacy in vitro measured by caspase 3/7 activity (DUX4 toxicity) | percentage of affected fish (whole-body phenotype) (DUX4-injected zebrafish) | suppression of DUX4 toxicity (DUX4 toxicity; 20 uM)
1 | COC(=O)c1ccc(O)c(NC(=O)COc2ccc(C34CC5CC(CC(C5)C3)C4)cc2)c1 [Hif1a inhibitor] | Dose-response reduction of biomarkers | – | – | – | – | –
2 | O=c1cc(N2CCOCC2)oc2c(-c3ccccc3)cccc12 [LY294002, Ly294002] | – | reduced caspase fluorescence | efficacy | showed efficacy in vitro | – | –
3 | CO[C@H]1[C@@H](OC)C[C@H](C)[C@@H](OC)C2=CC(=O)C=C(NC(=O)/C(C)=C/C=C\[C@H](OC)[C@@H](OC(N)=O)/C(C)=C/[C@@H]1C)C2=O [Herbimycin A] | – | reduced caspase fluorescence | efficacy | showed efficacy in vitro | significantly reduced; also recorded: significantly decreased percentage of affected fish | good suppression of DUX4 toxicity
